The record followed here is US20160113911A1, “METHODS AND COMPOSITIONS FOR THE TREATMENT OF CANCER” (THE GENERAL HOSPITAL CORPORATION, priority 2013, published 2016).

One data set has as its system HEK 293T cells. Briefly: Monitored cell proliferation assay (xCELLigence growth curves, doubling time). It counts as cell-based, human. Here is the method: Seventy two hours post transfection 1×10^4 HEK 293T cells were seeded per well of a 96 well plate, and then treated after 24h. Cell proliferation was monitored with an xCELLigence system (Roche) (Vistejnova et al., 2009).

The subject of a further data set is KDM4A. As to the kind of experiment: KDM4A protein levels by western blot. The settings on record: 293T cells, fractionated in presence of NEM. It counts as cell-based, human. The method, then:
Western blot analyses were performed according to (Black et al., 2010).
Western blots were performed as in (Black et al., 2010). Briefly, adherent cells were either scraped directly into PBS, or washed with PBS, trypsinized and collected by centrifuging at 2,000 RPM for 5 minutes. For preparation of whole-cell lysates, cell pellets were washed once in ice-cold PBS and resuspended in RIPA lysis buffer [50 mM Tris pH 7.4, 150 mM NaCl, 0.25% Sodium Deoxycholate, 1% NP40, 1 mM EDTA, 10% Glycerol] supplemented with complete protease inhibitor and PhosSTOP™ phosphatase inhibitor cocktails (Roche). Cells were lysed on ice for 15 minutes and immediately frozen at −80° C. for 10 min. Lysates were subsequently sonicated at 70% amplitude for 15 minutes in a QSonica Q800R™ and cleared of cell debris by centrifuging at 12,000 RPM for 15 minutes, before being analyzed by western blotting. For HIF1α expression, adherent cells were washed twice with ice-cold PBS and scraped directly in warmed 1× Laemmli buffer. Samples were sonicated at 70% amplitude for 15 minutes and boiled immediately prior to western blotting.
(In western blotting, separated proteins are transferred to a membrane and probed.)

The test system of data set [1] is 1q12h copy gain in RPE cells. As to the kind of experiment: FISH for site-specific copy gain. It is filed as cell-based, human. The settings on record: for hypoxia-dependent copy gain of 1q12h / hypoxia-induced 1q12h copy number gains / KDM4A-dependent 1q12h copy gain upon co-expression: RPE cells; for hypoxia-dependent copy gain of 1q12h: 1% O2 24 hours, JIB-04 62.5 nM or 2 mM succinate pre-treatment, or overexpression; for hypoxia-induced 1q12h copy number gains: 4% oxygen, transfection or 2 mM succinate for 24 hours; for KDM4A-dependent 1q12h copy gain upon co-expression: transient transfection 24 hours. The method, then:
FISH was performed as described in (Manning et al., 2010). Probes for 1q12h, 1q telomere, and chromosome 2, 6, 8, and X alpha satellite were purchased from Rainbow Scientific. Probes for 1q12 (RP11-80L2), Xq13.2 (RP11-451A22), Xq13.1 (RP11-177A4) were purchased as BAC clones from Children's Hospital Oakland Research Institute (CHORI BacPac) FISH verified clone repository. Oligonucleotide probes for 1q21.2 (BCL9) and 1q23.3 were purchased from Agilent (SureFISH). BACS were prepared utilizing PureLink HiPure Plasmid Filter Maxiprep kit (Life Technologies) using the recommended modified wash buffer. Probes were nick translated (Abbot Molecular Kit) in the presence of fluorescently labeled dTTP (Enzo Life Science). Images of multiple planes of fields of nuclei were acquired on an Olympus IX81 Spinning Disk Microscope and analyzed using Slidebook 5.0 software. We used a conservative scoring metric for copy gain. Any foci that were touching were scored as a single foci to prevent increased numbers due to normally replicated foci. For RPE cells, copy gain was scored as any cell with 3 or more distinct foci. For 293T cells, copy gain was scored for any cell with 5 or more distinct foci. For RPE cells each experiment includes at least one replicate from the two different polyclonal stable cell preparations. At least 100 cells for each replicate were scored for all experiments except analysis of single cell clones.
Cells were plated onto culture dishes and allowed to adhere for 20-24 hrs in normoxia (5% CO2, 21% O2, and 74% N2). For hypoxic treatment, cells were maintained in a HERA Cell 150™ incubator (Thermo Scientific) flushed with 5% CO2, 1% O2 or 4% O2, and balanced with N2 for the duration of the experiment. Incubator calibrations were carried out by Bianchi Associates Calibrations/Verifications.
To release, cells were washed twice with culture medium pre-conditioned in normoxia or hypoxia, and supplied with fresh pre-conditioned media. For JIB-04 treatment, normoxic cells were pre-treated with 62.5 nM JIB-04 (Xcessbio) for 24 hrs, then treated again with JIB-04 and either transferred to 1% O2 or maintained in normoxia for an additional 24 hrs. Succinate was administered at a final concentration of 2 mM and cells were either maintained in normoxia for 72 hrs or maintained in normoxia for 48 hrs prior to being transferred to 1% O2 for 24 hrs.
FISH was performed as described in (Black et al., 2013; Manning et al., 2010). Probes for 1q12h, 1q telomere, chromosome 8 centromere (alpha satellite), and X centromere (alpha satellite) were purchased from Rainbow Scientific. Probes for Xq13.1 (RP11-177A4), Zebrafish BCL9 (CH73-15J19) and Zebrafish IGBP1 (CH73-223D24) were purchased as BAC clones from Children's Hospital Oakland Research Institute (CHORI BacPac) clone repository. Probes for 1q21.2 (BCL9) and 1q23.3 were purchased from Agilent (SureFISH).
FISH was performed as described in (Black et al., 2013; Manning et al., 2010). Probes for 1q12h, 1q telomere, chromosome 8 centromere (alpha satellite), and X centromere (alpha satellite) were purchased from Rainbow Scientific. Probes for Xq13.1 (RP11-177A4), Zebrafish BCL9 (CH73-15J19) and Zebrafish IGBP1 (CH73-223D24) were purchased as BAC clones from Children's Hospital Oakland Research Institute (CHORI BacPac) clone repository. Probes for 1q21.2 (BCL9) and 1q23.3 were purchased from Agilent (SureFISH). BACS were prepared utilizing PureLink HiPure™ Plasmid Filter Maxiprep kit (Life Technologies) using the recommended modified wash buffer. Probes were nick translated (Abbot Molecular Kit) in the presence of fluorescently labeled dTTP (Enzo Life Science). Images of multiple planes of fields of nuclei were acquired on an Olympus IX81 T Spinning Disk Microscope and analyzed using Slidebook™ 5.0 software. A conservative scoring metric was used for copy gain. Any foci that were touching were scored as a single copy to prevent increased numbers due to normally replicated foci.

The test system of a further data set is H3K36me3. Briefly: H3K36 demethylase activity of KDM4A variants in transfected cells (immunofluorescence). It counts as cell-based. Set-up: key: + indicates active; − indicates inactive; +/− indicates partial acitivty. The note with it: KDM4A mutations.
The test system of the next data set is H3K9me3. Briefly: H3K9 demethylase activity of KDM4 variants in transfected cells. The note with it: KDM4A mutations. Also noted: key: + indicates active; − indicates inactive; +/− indicates partial acitivty. It is filed as cell-based.

Regarding `C[C@@H]1C[C@@H]([C@H](O)CC2CC(=O)NC(=O)C2)C(=O)[C@@H](C)C1` [Cycloheximide], in the data set on HEK 293T cells (HEK293T KDM4A shRNA, 30 nM), the “cell growth vs DMSO, KDM4A shRNA cells” value is listed as “slow growth”. Further, the “cell growth vs DMSO, control vector cells” value in the data set on HEK 293T cells (HEK293T control vector, 30 nM) was “do not slow growth”.
In the case of `CCN1C(=O)C=CC1=O` [NEM], the “hypoxia-induced changes in KDM4A levels and/or localization” value in the data set with KDM4A (1% O2 6h) was “reduced”. Moreover, the KDM4A chromatin association entry in the data set with KDM4A was “alters the chromatin association”.
As to `CCCS(=O)(=O)Nc1ccc(F)c(C(=O)c2c[nH]c3ncc(Cl)cc23)c1F` [PLX-4720], the “drug sensitivity of KDM4A shRNA cells vs control vector (growth curves, doubling time)” value in the data set on HEK 293T cells (HEK293T, PLX-4720) was “more sensitive”.
Regarding `O=C1NC(=NCc2cccs2)S/C1=C\c1ccc2ncccc2c1` [R03306, reference compound], in data set [1] (stable GFP-KDM4A RPE cells, arrested 20 hours), the “1q12h copy number in KDM4A overexpressing cells upon arrest” value is given as “failed to display increased copy number of 1q12h”.
Consider “HP1γ: H3K9me3 binding protein, overexpressed by transfection”, for which, in data set [1], the “hypoxia-dependent copy gain of 1q12h” value was “able to abrogate hypoxic induction of site-specific copy gain”, the “hypoxia-induced 1q12h copy number gains” value is on record as “antagonized” and the “KDM4A-dependent 1q12h copy gain upon co-expression” value was “significantly reduced the number of KDM4A overexpressing cells with altered copy number of 1q12h”.

B1: Suv39H1: H3K9me3 methyltransferase, overexpressed by transfection (protein, UniProt O43463 1-412, looked up)
Histone-lysine …: MAENLKGCSVCCKSSWNQLQDLCRLAKLSCPALGISKRNLYDFEVEYLCDYKKIREQEYYLVKWRGYPDSESTWEPRQNLKCVRILKQFHKDLERELLRRHHRSKTPRHLDPSLANYLVQKAKQRRALRRWEQELNAKRSHLGRITVENEVDLDGPPRAFVYINEYRVGEGITLNQVAVGCECQDCLWAPTGGCCPGASLHKFAYNDQGQVRLRAGLPIYECNSRCRCGYDCPNRVVQKGIRYDLCIFRTDDGRGWGVRTLEKIRKNSFVMEYVGEIITSEEAERRGQIYDRQGATYLFDLDYVEDVYTVDAAYYGNISHFVNHSCDPNLQVYNVFIDNLDERLPRIAFFATRTIRAGEELTFDYNMQVDPVDMESTRMDSNFGLAGLPGSPKKRVRIECKCGTESCRKYLF
modifications: Halo tag
notes: H3K9me3 methyltransferase, overexpressed by transfection
In the case of B1, in data set [1], the “hypoxia-dependent copy gain of 1q12h” value is “able to abrogate hypoxic induction of site-specific copy gain”, the “hypoxia-induced 1q12h copy number gains” value is listed as “antagonized” and the “KDM4A-dependent 1q12h copy gain upon co-expression” value was “sufficient to abrogate KDM4A-dependent 1q12h copy gain”.

B2: 2A-S28N: KDM4A mutation (protein)
chain: MASESETLNPSARIMTFYPTMEEFRNFNRYIAYIESQGAHRAGLAKVVPPKEWKPRASYDDIDDLVIPAPIQQLVTGQSGLFTQYNIQKKAMTVREFRKIANSDKYCTPRYSEFEELERKYWKNLTFNPPIYGADVNGTLYEKHVDEWNIGRLRTILDLVEKESGITIEGVNTPYLYFGMWKTSFAWHTEDMDLYSINYLHFGEPKSWYSVPPEHGKRLERLAKGFFPGSAQSCEAFLRHKMTLISPLMLKKYGIPFDKVTQEAGEFMITFPYGYHAGFNHGFNCAESTNFATRRWIEYGKQAVLCSCRKDMVKISMDVFVRKFQPERYKLWKAGKDNTVIDHTLPTPEAAEFLKESELPPRAGNEEECPEEDMEGVEDGEEGDLKTSLAKHRIGTKRHRVCLEIPQEVSQSELFPKEDLSSEQYEMTECPAALAPVRPTHSSVRQVEDGLTFPDYSDSTEVKFEELKNVKLEEEDEEEEQAAAALDLSVNPASVGGRLVFSGSKKKSSSSLGSGSSRDSISSDSETSEPLSCRAQGQTGVLTVHSYAKGDGRVTVGEPCTRKKGSAARSFSERELAEVADEYMFSLEENKKSKGRRQPLSKLPRHHPLVLQECVSDDETSEQLTPEEEAEETEAWAKPLSQLWQNRPPNFEAEKEFNETMAQQAPHCAVCMIFQTYHQVEFGGFNQNCGNASDLAPQKQRTKPLIPEMCFTSTGCSTDINLSTPYLEEDGTSILVSCKKCSVRVHASCYGVPPAKASEDWMCSRCSANALEEDCCLCSLRGGALQRANDDRWVHVSCAVAILEARFVNIAERSPVDVSKIPLPRFKLKCIFCKKRRKRTAGCCVQCSHGRCPTAFHVSCAQAAGVMMQPDDWPFVVFITCFRHKIPNLERAKGALQSITAGQKVISKHKNGRFYQCEVVRLTTETFYEVNFDDGSFSDNLYPEDIVSQDCLQFGPPAEGEVVQVRWTDGQVYGAKFVASHPIQMYQVEFEDGSQLVVKRDDVYTLDEELPKRVKSRLSVASDMRFNEIFTEKEVKQEKKRQRVINSRYREDYIEPALYRAIME
B2: the “H3k36 Demethylase Activity” value with H3K36me3 is “+”. Further, the “H3k9 Demethylase Activity” value in the data set with H3K9me3 is “+”.
